pIC50: −log10 of the molar value.
Tests used:
Type in all cases: biochemical
Tek-1 = target: T1, Tek-1 (Homo sapiens, UniProt Q02763); test: Kinase inhibition, 33P transfer to plate-bound substrate: Tek-1
T1 construct: Kinases are expressed as either kinase domains or full-length constructs; made in house
Source text: (§1) The inhibitor compounds described herein are screened in the following manner. Kinases suitable for use in the following protocol to determine kinase activity of the compounds described herein include, but are not limited to: Lck, Lyn, Src, Fyn, Syk, Zap-70, Itk, Tec, Btk, EGFR, ErbB2, Kdr, Flt-1, Flt-3, Tek, c-Met, InsR, and AKT.
(§2) Kinases are expressed as either kinase domains or full-length constructs fused to glutathione S-transferase (GST) or polyHistidine tagged fusion proteins in either E. coli or Baculovirus-High Five expression systems. They are purified to near homogeneity by affinity chromatography essentially as previously described (Lehr et al., 1996; Gish et al., 1995). In some instances, kinases are co-expressed or mixed with purified or partially purified regulatory polypeptides prior to measurement of activity.
(§3) Kinase activity and inhibition are measured essentially by established protocols (Braunwalder et al., 1996). Briefly, The transfer of ^33PO4 from ATP to the synthetic substrates poly(Glu, Tyr) 4:1 or poly(Arg, Ser) 3:1 attached to the bioactive surface of microtiter plates serves as the basis to evaluate enzyme activity. After an incubation period, the amount of phosphate transferred is measured by first washing the plate with 0.5% phosphoric acid, adding liquid scintillant, and then counting in a liquid scintillation detector. The IC50 is determined by the concentration of compound that causes a 50% reduction in the amount of ^33P incorporated onto the substrate bound to the plate.

ErbB4-1 = target: T2, ErbB4-1 (Homo sapiens, UniProt Q15303); test: Kinase inhibition, 33P transfer to plate-bound substrate: ErbB4-1
T2 construct: Kinases are expressed as either kinase domains or full-length constructs; made in house
Source text: as §1, §2, §3

Met-1 = target: T3, Met-1 (Homo sapiens, UniProt P08581); test: Kinase inhibition, 33P transfer to plate-bound substrate: Met-1
T3 construct: Kinases are expressed as either kinase domains or full-length constructs; made in house
Source text: as §1, §2, §3

Lck-2 = target: T4, Lck-2 (Homo sapiens, UniProt P06239); test: Kinase inhibition, 33P transfer to plate-bound substrate: Lck-2
T4 construct: Kinases are expressed as either kinase domains or full-length constructs; made in house
Source text: as §1, §2, §3

Hck-1 = target: T5, Hck-1 (Homo sapiens, UniProt P08631); test: Kinase inhibition, 33P transfer to plate-bound substrate: Hck-1
T5 construct: Kinases are expressed as either kinase domains or full-length constructs; made in house
Source text: as §1, §2
as §3, with “The IC50 is determined by the concentration of compound that causes a 50% reduction in the amount of ^33P incorporated onto the substrate bound to the plate.” left out

Itk-1 = target: T6, Itk-1 (Homo sapiens, UniProt Q08881); test: Kinase inhibition, 33P transfer to plate-bound substrate: Itk-1
T6 construct: Kinases are expressed as either kinase domains or full-length constructs; made in house
T6 sequence (Q08881 1-620): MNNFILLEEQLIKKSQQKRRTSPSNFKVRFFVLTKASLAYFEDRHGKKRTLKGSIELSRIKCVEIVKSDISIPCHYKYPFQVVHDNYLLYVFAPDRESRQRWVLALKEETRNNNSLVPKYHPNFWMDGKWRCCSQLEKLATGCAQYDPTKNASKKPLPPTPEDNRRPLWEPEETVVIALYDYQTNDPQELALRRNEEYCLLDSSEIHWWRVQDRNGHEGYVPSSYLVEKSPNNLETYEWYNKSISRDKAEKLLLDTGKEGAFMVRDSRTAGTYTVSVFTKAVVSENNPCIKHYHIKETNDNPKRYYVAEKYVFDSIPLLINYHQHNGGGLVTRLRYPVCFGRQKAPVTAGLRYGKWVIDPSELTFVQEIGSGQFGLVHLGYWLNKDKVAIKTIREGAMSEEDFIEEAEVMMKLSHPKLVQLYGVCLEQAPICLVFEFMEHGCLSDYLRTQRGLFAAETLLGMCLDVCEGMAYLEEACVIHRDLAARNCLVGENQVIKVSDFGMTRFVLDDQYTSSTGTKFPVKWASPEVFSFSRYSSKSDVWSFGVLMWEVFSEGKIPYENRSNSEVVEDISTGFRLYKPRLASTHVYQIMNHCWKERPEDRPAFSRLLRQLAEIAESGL
Source text: as §1, §2, §3

Lck-1 = target: T7, Lck-1 (Homo sapiens, UniProt P06239); test: Kinase inhibition, 33P transfer to plate-bound substrate: Lck-1
T7 construct: Kinases are expressed as either kinase domains or full-length constructs; made in house
Source text: as §1, §2, §3

FGFR1-1 = target: T8, FGFR1-1 (Homo sapiens, UniProt P11362); test: Kinase inhibition, 33P transfer to plate-bound substrate: FGFR1-1
T8 construct: Kinases are expressed as either kinase domains or full-length constructs; made in house
Source text: as §1, §2, §3

EGFR-1 = target: T9, EGFR-1 (Homo sapiens, UniProt P00533); test: Kinase inhibition, 33P transfer to plate-bound substrate: EGFR-1
T9 construct: Kinases are expressed as either kinase domains or full-length constructs; made in house
T9 sequence (P00533 25-1210): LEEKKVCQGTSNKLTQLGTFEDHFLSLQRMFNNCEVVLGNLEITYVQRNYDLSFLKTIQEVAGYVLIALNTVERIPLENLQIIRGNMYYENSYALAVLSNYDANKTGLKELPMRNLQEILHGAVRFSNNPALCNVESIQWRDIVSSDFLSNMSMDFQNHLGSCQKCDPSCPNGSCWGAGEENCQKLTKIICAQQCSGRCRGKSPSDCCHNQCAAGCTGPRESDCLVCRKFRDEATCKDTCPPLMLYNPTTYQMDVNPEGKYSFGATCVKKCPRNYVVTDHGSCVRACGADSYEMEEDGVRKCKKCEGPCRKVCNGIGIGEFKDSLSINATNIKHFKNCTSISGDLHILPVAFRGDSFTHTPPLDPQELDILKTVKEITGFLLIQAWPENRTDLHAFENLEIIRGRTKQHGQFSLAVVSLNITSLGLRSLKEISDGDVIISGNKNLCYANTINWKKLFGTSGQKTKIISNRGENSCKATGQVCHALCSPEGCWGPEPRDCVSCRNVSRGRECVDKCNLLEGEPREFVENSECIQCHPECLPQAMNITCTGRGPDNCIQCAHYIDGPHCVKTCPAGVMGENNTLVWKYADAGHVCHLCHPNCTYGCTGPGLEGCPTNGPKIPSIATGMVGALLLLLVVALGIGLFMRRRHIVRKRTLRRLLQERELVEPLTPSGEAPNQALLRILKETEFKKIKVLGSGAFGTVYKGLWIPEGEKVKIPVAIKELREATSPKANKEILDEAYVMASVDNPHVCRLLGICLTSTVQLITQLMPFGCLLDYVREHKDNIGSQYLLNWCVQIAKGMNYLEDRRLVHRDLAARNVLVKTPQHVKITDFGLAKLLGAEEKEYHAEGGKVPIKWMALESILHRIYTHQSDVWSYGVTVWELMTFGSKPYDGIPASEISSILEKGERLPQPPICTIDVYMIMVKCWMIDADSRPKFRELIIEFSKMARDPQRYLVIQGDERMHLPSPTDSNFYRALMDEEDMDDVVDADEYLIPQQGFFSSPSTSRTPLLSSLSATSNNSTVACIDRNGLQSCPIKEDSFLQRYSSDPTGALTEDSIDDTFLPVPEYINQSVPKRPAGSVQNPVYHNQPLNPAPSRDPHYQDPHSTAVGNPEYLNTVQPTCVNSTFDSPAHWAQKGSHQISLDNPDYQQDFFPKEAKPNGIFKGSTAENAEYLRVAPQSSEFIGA
Source text: as §1, §2, §3

InsR-1 = target: T10, InsR-1 (Homo sapiens, UniProt P06213); test: Kinase inhibition, 33P transfer to plate-bound substrate: InsR-1
T10 construct: Kinases are expressed as either kinase domains or full-length constructs; made in house
Source text: as §1, §2, §3

Fyn-1 = target: T11, Fyn-1 (Homo sapiens, UniProt P06241); test: Kinase inhibition, 33P transfer to plate-bound substrate: Fyn-1
T11 construct: Kinases are expressed as either kinase domains or full-length constructs; made in house
Source text: as §1, §2, §3

PDGFRB = target: T12, PDGFRB (Homo sapiens, UniProt P09619); test: Kinase inhibition, 33P transfer to plate-bound substrate: PDGFRB
T12 construct: Kinases are expressed as either kinase domains or full-length constructs; made in house
Source text: as §1, §2, §3

Lyn-1 = target: T13, Lyn-1 (Homo sapiens, UniProt P07948); test: Kinase inhibition, 33P transfer to plate-bound substrate: Lyn-1
T13 construct: Kinases are expressed as either kinase domains or full-length constructs; made in house
Source text: as §1, §2, §3

KDR-1 = target: T14, KDR-1 (Homo sapiens, UniProt P35968); test: Kinase inhibition, 33P transfer to plate-bound substrate: KDR-1
T14 construct: Kinases are expressed as either kinase domains or full-length constructs; made in house
T14 sequence (P35968 20-1356): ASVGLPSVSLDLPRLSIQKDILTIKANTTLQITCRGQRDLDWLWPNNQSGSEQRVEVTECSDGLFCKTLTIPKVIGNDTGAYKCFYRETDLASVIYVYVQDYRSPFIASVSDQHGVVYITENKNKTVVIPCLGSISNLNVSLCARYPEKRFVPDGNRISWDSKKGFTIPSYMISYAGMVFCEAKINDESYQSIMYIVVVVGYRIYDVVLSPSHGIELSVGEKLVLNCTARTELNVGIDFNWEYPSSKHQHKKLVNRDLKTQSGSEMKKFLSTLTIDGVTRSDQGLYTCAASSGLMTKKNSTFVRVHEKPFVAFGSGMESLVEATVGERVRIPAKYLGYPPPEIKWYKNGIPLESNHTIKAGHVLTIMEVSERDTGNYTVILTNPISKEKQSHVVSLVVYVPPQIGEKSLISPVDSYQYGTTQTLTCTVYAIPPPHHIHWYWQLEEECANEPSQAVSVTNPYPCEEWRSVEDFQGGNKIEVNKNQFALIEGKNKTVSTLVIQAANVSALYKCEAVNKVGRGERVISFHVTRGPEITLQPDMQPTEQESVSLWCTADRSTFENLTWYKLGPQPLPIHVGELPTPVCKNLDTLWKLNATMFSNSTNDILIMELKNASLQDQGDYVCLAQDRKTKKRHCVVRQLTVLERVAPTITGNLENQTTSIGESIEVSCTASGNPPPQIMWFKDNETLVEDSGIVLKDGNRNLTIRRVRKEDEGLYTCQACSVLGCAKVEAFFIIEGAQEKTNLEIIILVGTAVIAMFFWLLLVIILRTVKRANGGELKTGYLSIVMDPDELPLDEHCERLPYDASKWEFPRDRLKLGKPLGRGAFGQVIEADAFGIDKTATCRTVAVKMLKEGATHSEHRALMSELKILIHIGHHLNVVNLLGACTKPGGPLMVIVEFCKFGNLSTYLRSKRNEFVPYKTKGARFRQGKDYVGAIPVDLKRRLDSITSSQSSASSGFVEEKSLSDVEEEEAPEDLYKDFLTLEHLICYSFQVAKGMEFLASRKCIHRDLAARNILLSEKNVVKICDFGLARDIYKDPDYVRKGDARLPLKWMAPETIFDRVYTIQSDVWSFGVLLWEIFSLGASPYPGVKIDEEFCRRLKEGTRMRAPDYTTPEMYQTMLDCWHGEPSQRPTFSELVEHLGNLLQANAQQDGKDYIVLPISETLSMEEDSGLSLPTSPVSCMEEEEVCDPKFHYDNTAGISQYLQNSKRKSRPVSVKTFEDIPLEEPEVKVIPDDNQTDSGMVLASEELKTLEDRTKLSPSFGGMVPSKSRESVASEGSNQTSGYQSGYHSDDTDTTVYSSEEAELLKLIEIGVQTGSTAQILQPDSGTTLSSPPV
Source text: as §1, §2, §3

Src-1 = target: T15, Src-1 (Homo sapiens, UniProt P12931); test: Kinase inhibition, 33P transfer to plate-bound substrate: Src-1
T15 construct: Kinases are expressed as either kinase domains or full-length constructs; made in house
Source text: as §1, §2, §3

Flt1-1 = target: T16, Flt1-1 (Homo sapiens, UniProt P17948); test: Kinase inhibition, 33P transfer to plate-bound substrate: Flt1-1
T16 construct: Kinases are expressed as either kinase domains or full-length constructs; made in house
T16 sequence (P17948 27-1338): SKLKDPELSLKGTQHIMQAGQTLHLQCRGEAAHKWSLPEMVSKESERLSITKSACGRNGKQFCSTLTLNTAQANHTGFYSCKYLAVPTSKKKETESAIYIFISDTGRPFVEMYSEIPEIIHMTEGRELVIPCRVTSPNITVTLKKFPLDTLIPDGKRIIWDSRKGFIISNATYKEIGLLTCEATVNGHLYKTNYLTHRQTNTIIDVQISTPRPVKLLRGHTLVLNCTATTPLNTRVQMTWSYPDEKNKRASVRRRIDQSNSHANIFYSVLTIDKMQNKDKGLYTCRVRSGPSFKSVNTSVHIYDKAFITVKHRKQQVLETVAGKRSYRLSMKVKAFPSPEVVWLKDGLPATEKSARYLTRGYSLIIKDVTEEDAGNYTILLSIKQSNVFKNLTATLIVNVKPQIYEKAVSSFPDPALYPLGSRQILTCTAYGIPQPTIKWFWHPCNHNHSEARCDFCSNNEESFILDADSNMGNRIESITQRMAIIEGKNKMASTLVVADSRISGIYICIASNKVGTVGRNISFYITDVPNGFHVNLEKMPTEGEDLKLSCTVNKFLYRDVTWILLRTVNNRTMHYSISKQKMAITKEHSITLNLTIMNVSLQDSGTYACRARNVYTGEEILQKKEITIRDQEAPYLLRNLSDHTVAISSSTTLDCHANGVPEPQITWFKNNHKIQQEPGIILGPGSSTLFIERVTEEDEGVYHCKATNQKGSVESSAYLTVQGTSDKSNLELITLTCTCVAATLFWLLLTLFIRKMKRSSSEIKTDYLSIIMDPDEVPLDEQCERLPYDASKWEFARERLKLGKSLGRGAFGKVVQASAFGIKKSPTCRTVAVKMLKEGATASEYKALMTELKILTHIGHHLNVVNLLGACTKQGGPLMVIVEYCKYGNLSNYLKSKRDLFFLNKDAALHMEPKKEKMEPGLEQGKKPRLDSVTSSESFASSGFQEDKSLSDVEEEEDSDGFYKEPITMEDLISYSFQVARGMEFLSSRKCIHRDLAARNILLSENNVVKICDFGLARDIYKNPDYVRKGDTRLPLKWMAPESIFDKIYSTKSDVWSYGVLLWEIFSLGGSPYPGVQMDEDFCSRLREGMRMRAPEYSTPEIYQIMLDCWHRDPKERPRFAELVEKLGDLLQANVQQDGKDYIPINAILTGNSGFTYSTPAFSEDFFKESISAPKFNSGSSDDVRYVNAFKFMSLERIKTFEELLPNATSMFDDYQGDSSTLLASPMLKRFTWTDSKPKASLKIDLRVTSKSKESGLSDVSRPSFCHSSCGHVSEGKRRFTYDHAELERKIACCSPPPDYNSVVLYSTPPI
Source text: as §1, §2, §3

ErbB2-1 = target: T17, ErbB2-1 (Homo sapiens, UniProt P04626); test: Kinase inhibition, 33P transfer to plate-bound substrate: ErbB2-1
T17 construct: Kinases are expressed as either kinase domains or full-length constructs; made in house
Source text: as §1, §2, §3

Zap-1 = target: T18, Zap-1 (Homo sapiens, UniProt P43403); test: Kinase inhibition, 33P transfer to plate-bound substrate: Zap-1
T18 construct: Kinases are expressed as either kinase domains or full-length constructs; made in house
T18 sequence (P43403 1-619): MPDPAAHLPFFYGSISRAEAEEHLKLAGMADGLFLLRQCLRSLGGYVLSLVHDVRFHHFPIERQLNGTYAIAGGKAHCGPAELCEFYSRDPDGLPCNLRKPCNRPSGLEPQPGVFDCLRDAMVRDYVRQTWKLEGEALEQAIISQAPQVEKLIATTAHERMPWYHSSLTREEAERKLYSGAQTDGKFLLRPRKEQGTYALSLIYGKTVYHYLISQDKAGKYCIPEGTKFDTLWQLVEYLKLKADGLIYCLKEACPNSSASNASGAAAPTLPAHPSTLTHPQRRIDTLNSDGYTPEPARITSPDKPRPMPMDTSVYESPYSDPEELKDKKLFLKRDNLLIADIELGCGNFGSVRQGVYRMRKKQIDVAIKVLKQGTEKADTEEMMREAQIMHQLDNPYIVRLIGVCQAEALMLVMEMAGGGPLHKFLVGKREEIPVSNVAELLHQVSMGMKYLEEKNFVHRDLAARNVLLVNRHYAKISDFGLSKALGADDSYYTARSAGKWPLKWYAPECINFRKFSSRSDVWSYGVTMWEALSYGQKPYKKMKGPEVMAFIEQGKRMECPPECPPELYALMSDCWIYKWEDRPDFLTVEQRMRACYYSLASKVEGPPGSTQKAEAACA
Source text: as §1, §2, §3

Akt3-1 = target: T19, Akt3-1 (Homo sapiens, UniProt Q9Y243); test: Kinase inhibition, 33P transfer to plate-bound substrate: Akt3-1
T19 construct: Kinases are expressed as either kinase domains or full-length constructs; made in house
Source text: as §1, §2, §3

Ret-1 = target: T20, Ret-1 (Homo sapiens, UniProt P07949); test: Kinase inhibition, 33P transfer to plate-bound substrate: Ret-1
T20 construct: Kinases are expressed as either kinase domains or full-length constructs; made in house
T20 sequence (P07949 29-1114): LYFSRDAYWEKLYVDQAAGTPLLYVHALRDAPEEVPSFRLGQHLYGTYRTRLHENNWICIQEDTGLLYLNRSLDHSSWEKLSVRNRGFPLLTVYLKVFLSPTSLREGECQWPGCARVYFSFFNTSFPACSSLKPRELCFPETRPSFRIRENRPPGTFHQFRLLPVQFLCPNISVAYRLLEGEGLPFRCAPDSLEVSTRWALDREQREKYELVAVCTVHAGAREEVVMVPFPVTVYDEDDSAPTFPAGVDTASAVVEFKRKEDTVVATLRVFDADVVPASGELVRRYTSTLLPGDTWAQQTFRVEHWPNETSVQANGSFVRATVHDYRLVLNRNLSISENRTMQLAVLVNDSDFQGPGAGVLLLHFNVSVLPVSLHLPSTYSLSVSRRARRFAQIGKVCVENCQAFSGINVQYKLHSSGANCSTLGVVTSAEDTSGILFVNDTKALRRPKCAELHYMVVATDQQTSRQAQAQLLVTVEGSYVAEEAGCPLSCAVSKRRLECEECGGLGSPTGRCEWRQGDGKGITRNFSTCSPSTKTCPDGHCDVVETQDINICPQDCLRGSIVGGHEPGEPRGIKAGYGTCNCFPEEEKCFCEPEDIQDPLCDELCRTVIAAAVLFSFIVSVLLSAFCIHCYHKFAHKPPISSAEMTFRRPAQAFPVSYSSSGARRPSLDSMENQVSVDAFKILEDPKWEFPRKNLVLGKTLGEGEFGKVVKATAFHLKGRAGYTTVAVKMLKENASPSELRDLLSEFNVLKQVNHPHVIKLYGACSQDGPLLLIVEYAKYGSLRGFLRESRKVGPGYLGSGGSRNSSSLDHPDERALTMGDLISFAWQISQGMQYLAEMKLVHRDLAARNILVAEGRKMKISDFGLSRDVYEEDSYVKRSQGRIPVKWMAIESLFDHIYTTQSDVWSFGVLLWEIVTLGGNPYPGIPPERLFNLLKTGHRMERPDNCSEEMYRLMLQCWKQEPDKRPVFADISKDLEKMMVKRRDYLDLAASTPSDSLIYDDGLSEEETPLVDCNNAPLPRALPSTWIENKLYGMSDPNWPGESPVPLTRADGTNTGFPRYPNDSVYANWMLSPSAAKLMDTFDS
Source text: as §1, §2, §3

IGFR-1 = target: T21, IGFR-1 (Homo sapiens, UniProt P08069); test: Kinase inhibition, 33P transfer to plate-bound substrate: IGFR-1
T21 construct: Kinases are expressed as either kinase domains or full-length constructs; made in house
Source text: as §1, §2, §3

In the case of COc1cc(Nc2nccc(-n3c(=O)[nH]c4ccccc43)n2)cc(OC)c1OC [Compound 3], the pIC50 (Tek-1) was 5.00 to 5.30, the pIC50 (ErbB4-1) was ≤ 5.00 and the pIC50 (Met-1) was 5.30 to 5.82. For the same molecule, the pIC50 (Lck-2) was 5.30 to 5.82, the pIC50 (Hck-1) was ≤ 5.00 and the pIC50 (Itk-1) was ≤ 5.00. For the same molecule, the pIC50 (Lck-1) was 5.30 to 5.82, the pIC50 (FGFR1-1) was > 5.82 and the pIC50 (EGFR-1) was ≤ 5.00. The pIC50 (InsR-1) was 5.30 to 5.82, the pIC50 (Fyn-1) was 5.00 to 5.30 and the pIC50 (PDGFRB) was > 5.82. The pIC50 (Lyn-1) was 5.30 to 5.82, the pIC50 (KDR-1) was > 5.82 and the pIC50 (Src-1) was 5.00 to 5.30. For the same molecule, the pIC50 (Flt1-1) was > 5.82, the pIC50 (ErbB2-1) was ≤ 5.00 and the pIC50 (Zap-1) was 5.30 to 5.82. For the same molecule, the pIC50 (Akt3-1) was ≤ 5.00, the pIC50 (Ret-1) was > 5.82 and the pIC50 (IGFR-1) was > 5.82.

— patent US7282504B2, “Kinase inhibitors” (Amgen Inc., priority 2000, dated 2007)
